Legend:
[1] = system: Mushroom-derived tyrosinase; assay: Tyrosinase inhibitory effect; type: biochemical; settings: 1 mM L-tyrosin, pH 6.5, 25° C., 30 minutes, OD492; positive control kojic acid; FIGS. 3 and 4
Experimental: Mushroom-derived tyrosinase was sued as an enzyme source in the present experiment. Tyrosinase activities were assayed according to a slightly-modified conventionally known method (Life Sci., 1999, 65, 241-246). In detail, 20 μl of a mushroom-derived tyrosinase (1000 units) aqueous solution was added to 96-well microplate (Nunc, Denmark) to prepare 200 μl of the total volume of assay mixture containing 1 mM L-tyrosin solution and 50 mM phosphate buffer solution (pH 6.5). The assay mixture was cultured at a temperature of 25° C. for 30 minutes.

PPAR gamma-LBD = target: T1, PPAR gamma-LBD (Homo sapiens, UniProt P37231); assay: PPAR assay, PPARγ; type: binding; settings: sample final concentration 100 μM; positive control rosiglitazone; FIGS. 7 and 8
T1 sequence (P37231 238-503 limits assumed): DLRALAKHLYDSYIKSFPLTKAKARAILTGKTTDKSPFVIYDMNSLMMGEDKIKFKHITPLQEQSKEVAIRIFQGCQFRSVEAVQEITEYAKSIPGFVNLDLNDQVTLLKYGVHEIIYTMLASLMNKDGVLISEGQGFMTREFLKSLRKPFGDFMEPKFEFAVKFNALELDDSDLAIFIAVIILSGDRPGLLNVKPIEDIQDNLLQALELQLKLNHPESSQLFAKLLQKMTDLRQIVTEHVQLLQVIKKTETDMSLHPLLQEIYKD

PPAR alpha-LBD = target: T2, PPAR alpha-LBD (Homo sapiens, UniProt Q07869); assay: PPAR assay, PPARα; settings: for PPARα activation (competitive activation rate), compared with fenofibrate: sample final concentration 100 μM, positive control fenofibrate, FIGS. 5 and 6; for simultaneous activation of PPARα and PPARγ: summary of the PPARα and PPARγ assays, sample 100 μM
T2 sequence (Q07869 239-466 limits assumed): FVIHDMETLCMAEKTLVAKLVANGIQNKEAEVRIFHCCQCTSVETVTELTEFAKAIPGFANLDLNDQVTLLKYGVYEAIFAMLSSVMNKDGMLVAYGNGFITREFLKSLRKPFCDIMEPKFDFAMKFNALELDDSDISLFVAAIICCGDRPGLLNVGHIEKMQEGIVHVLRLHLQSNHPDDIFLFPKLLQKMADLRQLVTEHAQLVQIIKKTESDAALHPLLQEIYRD

[2] = system: YPEN-1 cells (rat prostatic endothelial cell line); assay: In vitro ROS scavenging activity assay (DCFDA); type: cell-based; settings: cells pre-treated with 50 μM SIN-1 for 1 hour; DCFDA fluorescence; positive control trolox; FIGS. 1 and 2
Experimental: YPEN-1 cells (rat prostatic endothelial cell line) was obtained from American type culture collection (ATCC, Manassas, Va., USA), and the cells were cultured by using a dulbecco's modified eagle medium (DMEM, Nissui, Tokyo, Japan) containing 2 mM L-glutamine, […], 2.5 mg/L amphotericin B, and 5% inactivated fetal bovine serum (FBS). Also, the cells were maintained at a temperature of 37° C. in a humid atmosphere-like condition containing 5% CO2 and 95% air. […] The cells were sub-cultured in 100 mm plastic flask (Corning Co., New York, USA) every two days to maintain the cell line.
2′,7′-dichlorodihydrofluorescein diacetate (DCFDA) assay method according to a conventionally known method (Chem Res Toxicol. 5: 227-231, 1992) was used. In detail, 12.5 mM DCFDA dissolved in 99.9% ethanol and 600 U/ml esterase dissolved in tertiary distilled water were stored as a stock solution at a temperature of −20° C., and a 2′,7′-dichlorodihydrofluorescein (DCFH) solution prepared by mixing 10 mM DCFDA and 6 U/ml esterase was cultured at a temperature of 22° C. for 20 minutes, and then, refrigerated in a dark place before use. […] Vascular endothelial cells that were pre-treated with 50 μM 3-morpholinosydnonimine hydrochloride (SIN-1) for 1 hour were used as a reactive oxygen generation source.

Structure (SMILES)	melting point	simultaneous activation of PPARα and PPARγ (PPAR alpha-LBD)	tyrosinase inhibitory activities, compared with kojic acid [1]	PPARγ activation (competitive activation rate), compared with rosiglitazone (PPAR gamma-LBD)	PPARα activation (competitive activation rate), compared with fenofibrate (PPAR alpha-LBD)	scavenging effects on ROS generated by vascular endothelial cells, compared with trolox [2]
COc1ccc(C2N[C@H](C(=O)O)CS2)c(OC)c1 (mixture of isomers) [Compound 9, (2R/S,4R)-2-(2,4-dimethoxyphenyl)thiazolidine-4-carboxylic acid]	137.7 to 139.2 °C		better tyrosinase inhibitory activities than a kojic acid			
Oc1ccc(-c2nc3cc(C(F)(F)F)ccc3s2)c(O)c1 [Compound 30, 4-(5-(trifluoromethyl)benzo[d]thiazol-2-yl)benzene-1,3-diol]	236.2 to 238.2 °C		better tyrosinase inhibitory activities than a kojic acid			
Oc1ccc(-c2nc3ccccc3[nH]2)c(O)c1 [Compound 45, 4-(1H-benzo[d]imidazol-2-yl)benzene-1,3-diol]		simultaneously activates PPARα and PPARγ	better tyrosinase inhibitory activities than a kojic acid	very excellent PPARγ activation agent compared to rosiglitazone	very excellent PPARα activation agent compared to fenofibrate	
O=C(O)c1csc(-c2ccc(O)cc2O)n1 [Compound 101, 2-(2,4-Dihydroxyphenyl)thiazole-4-carboxylic acid]			better tyrosinase inhibitory activities than a kojic acid			

Further lines, with some results ahead:

melting point	simultaneous activation of PPARα and PPARγ (PPAR alpha-LBD)	Structure (SMILES)	tyrosinase inhibitory activities, compared with kojic acid [1]	PPARγ activation (competitive activation rate), compared with rosiglitazone (PPAR gamma-LBD)	PPARα activation (competitive activation rate), compared with fenofibrate (PPAR alpha-LBD)	scavenging effects on ROS generated by vascular endothelial cells, compared with trolox [2]
	simultaneously activates PPARα and PPARγ	Oc1ccc(-c2nc3ccccc3s2)cc1 [Compound 13, 4-(benzo[d]thiazol-2-yl)phenol]	better tyrosinase inhibitory activities than a kojic acid	very excellent PPARγ activation agent compared to rosiglitazone	very excellent PPARα activation agent compared to fenofibrate	
	simultaneously activates PPARα and PPARγ	COc1cc(-c2nc3ccccc3[nH]2)cc(OC)c1O [Compound 55, 4-(1H-benzo[d]imidazol-2-yl)-2,6-dimethoxyphenol]	better tyrosinase inhibitory activities than a kojic acid	very excellent PPARγ activation agent compared to rosiglitazone	very excellent PPARα activation agent compared to fenofibrate	
259.3 to 263.1 °C		Oc1ccc(-c2nc3cc(Cl)ccc3s2)cc1 [Compound 82, 4-(5-chlorobenzo[d]thiazol-2-yl)phenol]	better tyrosinase inhibitory activities than a kojic acid			
127.4 to 129.1 °C		Oc1ccc(-c2nc3cc(Cl)ccc3s2)cc1O [Compound 83, 4-(5-chlorobenzo[d]thiazol-2-yl)benzene-1,2-diol]	better tyrosinase inhibitory activities than a kojic acid			as high scavenging effects on ROS generated by vascular endothelial cells as trolox
155.8 to 158.6 °C	simultaneously activates PPARα and PPARγ	COc1cc(C2Nc3cc(Cl)ccc3S2)cc(OC)c1O (centres unmarked) [Compound 94, 4-(5-chloro-2,3-dihydrobenzo[d]thiazol-2-yl)-2,6-dimethoxyphenol]	better tyrosinase inhibitory activities than a kojic acid	very excellent PPARγ activation agent compared to rosiglitazone	very excellent PPARα activation agent compared to fenofibrate	as high scavenging effects on ROS generated by vascular endothelial cells as trolox
	simultaneously activates PPARα and PPARγ	CC(C)(Oc1ccc(-c2nc3cc(Cl)ccc3s2)cc1)C(=O)O [Compound 99, 2-(4-(5-chlorobenzo[d]thiazol-2-yl)phenoxy)-2-methylpropanoic acid]	better tyrosinase inhibitory activities than a kojic acid	very excellent PPARγ activation agent compared to rosiglitazone	very excellent PPARα activation agent compared to fenofibrate	

Source: patent US8889881B2, “Compound having skin-whitening, anti-oxidizing and PPAR activities and medical use therefor” (Pusan National University Industry —University Cooperation …, priority 2011, dated 2014)
